Legend:
Test in all cases: relative viability (nuclei count vs DMSO), 5 days (fraction); higher = more cells survive
[1] = compound: O=C(O)c1ccc2c(c1)nc(Nc1cccc(Cl)c1)c1ccncc12 [Silmitasertib] + O=C(c1cc(Cc2n[nH]c(=O)c3ccccc23)ccc1F)N1CCN(C(=O)C2CC2)CC1 [Olaparib] (partner 8 µM)
Summary of the method: (§1)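 Lung cancer cell lines were pin-tool dosed in 1536-well plates on the day after seeding, with either a lone drug or a fixed anchor-drug dose plus five library-drug doses (not always all listed) in √10 steps. Nuclei were counted on 4× images after 5 days. Relative viability is the ratio of treated-well to vehicle-well nuclei counts, with each value a median of duplicate plates.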

[2] = compound: O=C(O)c1ccc2c(c1)nc(Nc1cccc(Cl)c1)c1ccncc12 [Silmitasertib] + Cc1cc(Nc2cc(N3CCN(C)CC3)nc(Sc3ccc(NC(=O)C4CC4)cc3)n2)n[nH]1 [Tozasertib] (partner 0.1 µM)
Summary of the method: as §1

[3] = compound: O=C(O)c1ccc2c(c1)nc(Nc1cccc(Cl)c1)c1ccncc12 [Silmitasertib] + O=C(CCCCCCC(=O)Nc1ccccc1)NO [Vorinostat] (partner 1 µM)
Summary of the method: as §1

[4] = compound: O=C(O)c1ccc2c(c1)nc(Nc1cccc(Cl)c1)c1ccncc12 [Silmitasertib] + C[C@]1(O)C[C@@H](c2nc(-c3ccc4ccc(-c5ccccc5)nc4c3)c3c(N)nccn32)C1 [Linsitinib] (partner 1 µM)
Summary of the method: as §1

[5] = compound: O=C(O)c1ccc2c(c1)nc(Nc1cccc(Cl)c1)c1ccncc12 [Silmitasertib] + Cc1nc(Nc2ncc(C(=O)Nc3c(C)cccc3Cl)s2)cc(N2CCN(CCO)CC2)n1 [Dasatinib] (partner 0.075 µM)
Summary of the method: as §1

NCI-H1651
relative viability ([1]; first compound 0.04 µM): 0.171 | relative viability ([1]; first compound 0.4 µM): 0.139 | relative viability ([1]; first compound 1.265 µM): 0.184 | relative viability ([1]; first compound 4 µM): 0.186 | relative viability ([2]; first compound 0.04 µM): 0.785 | relative viability ([2]; first compound 0.4 µM): 0.556 | relative viability ([2]; first compound 1.265 µM): 0.541 | relative viability ([2]; first compound 4 µM): 0.443 | relative viability ([3]; first compound 0.04 µM): 0.572 | relative viability ([3]; first compound 0.4 µM): 0.456 | relative viability ([3]; first compound 1.265 µM): 0.335 | relative viability ([3]; first compound 4 µM): 0.594 | relative viability ([4]; first compound 0.04 µM): 0.944 | relative viability ([4]; first compound 0.4 µM): 1 | relative viability ([4]; first compound 1.265 µM): 0.901 | relative viability ([4]; first compound 4 µM): 0.942 | relative viability ([5]; first compound 0.04 µM): 0.49 | relative viability ([5]; first compound 0.4 µM): 0.387 | relative viability ([5]; first compound 1.265 µM): 0.448 | relative viability ([5]; first compound 4 µM): 0.384

NCI-H1666
relative viability ([1]; first compound 0.04 µM): 0.713 | relative viability ([1]; first compound 0.4 µM): 0.577 | relative viability ([1]; first compound 1.265 µM): 0.566 | relative viability ([1]; first compound 4 µM): 0.61 | relative viability ([2]; first compound 0.04 µM): 0.734 | relative viability ([2]; first compound 0.4 µM): 0.626 | relative viability ([2]; first compound 1.265 µM): 0.543 | relative viability ([2]; first compound 4 µM): 0.446 | relative viability ([3]; first compound 0.04 µM): 1.06 | relative viability ([3]; first compound 0.4 µM): 0.845 | relative viability ([3]; first compound 1.265 µM): 0.855 | relative viability ([3]; first compound 4 µM): 0.689 | relative viability ([4]; first compound 0.04 µM): 0.919 | relative viability ([4]; first compound 0.4 µM): 0.571 | relative viability ([4]; first compound 1.265 µM): 0.682 | relative viability ([4]; first compound 4 µM): 0.536 | relative viability ([5]; first compound 0.04 µM): 0.837 | relative viability ([5]; first compound 0.4 µM): 0.664 | relative viability ([5]; first compound 1.265 µM): 0.623 | relative viability ([5]; first compound 4 µM): 0.615

NCI-H1734
relative viability ([1]; first compound 0.04 µM): 0.607 | relative viability ([1]; first compound 0.4 µM): 0.373 | relative viability ([1]; first compound 1.265 µM): 0.583 | relative viability ([1]; first compound 4 µM): 0.549 | relative viability ([2]; first compound 0.04 µM): 0.275 | relative viability ([2]; first compound 0.4 µM): 0.261 | relative viability ([2]; first compound 1.265 µM): 0.274 | relative viability ([2]; first compound 4 µM): 0.243 | relative viability ([3]; first compound 0.04 µM): 0.849 | relative viability ([3]; first compound 0.4 µM): 0.705 | relative viability ([3]; first compound 1.265 µM): 0.874 | relative viability ([3]; first compound 4 µM): 0.582 | relative viability ([4]; first compound 0.04 µM): 0.884 | relative viability ([4]; first compound 1.265 µM): 0.801 | relative viability ([4]; first compound 4 µM): 0.929 | relative viability ([5]; first compound 0.04 µM): 0.498 | relative viability ([5]; first compound 0.4 µM): 0.422 | relative viability ([5]; first compound 1.265 µM): 0.471 | relative viability ([5]; first compound 4 µM): 0.487

NCI-H1755
relative viability ([1]; first compound 0.04 µM): 0.892 | relative viability ([1]; first compound 0.4 µM): 0.783 | relative viability ([1]; first compound 1.265 µM): 0.858 | relative viability ([1]; first compound 4 µM): 1.01 | relative viability ([2]; first compound 0.04 µM): 0.572 | relative viability ([2]; first compound 0.4 µM): 0.519 | relative viability ([2]; first compound 1.265 µM): 0.623 | relative viability ([2]; first compound 4 µM): 0.714 | relative viability ([3]; first compound 0.04 µM): 0.756 | relative viability ([3]; first compound 0.4 µM): 0.633 | relative viability ([3]; first compound 1.265 µM): 0.526 | relative viability ([3]; first compound 4 µM): 0.72 | relative viability ([4]; first compound 0.04 µM): 1.02 | relative viability ([4]; first compound 0.4 µM): 1.04 | relative viability ([4]; first compound 1.265 µM): 1.06 | relative viability ([4]; first compound 4 µM): 1.13 | relative viability ([5]; first compound 0.04 µM): 0.382 | relative viability ([5]; first compound 0.4 µM): 0.419 | relative viability ([5]; first compound 1.265 µM): 0.408 | relative viability ([5]; first compound 4 µM): 0.363

NCI-H1793
relative viability ([1]; first compound 0.04 µM): 0.924 | relative viability ([1]; first compound 0.4 µM): 0.715 | relative viability ([1]; first compound 1.265 µM): 0.769 | relative viability ([1]; first compound 4 µM): 0.625 | relative viability ([2]; first compound 0.04 µM): 0.392 | relative viability ([2]; first compound 0.4 µM): 0.297 | relative viability ([2]; first compound 1.265 µM): 0.2 | relative viability ([2]; first compound 4 µM): 0.331 | relative viability ([3]; first compound 0.04 µM): 0.989 | relative viability ([3]; first compound 0.4 µM): 0.619 | relative viability ([3]; first compound 1.265 µM): 0.718 | relative viability ([3]; first compound 4 µM): 0.213 | relative viability ([4]; first compound 0.04 µM): 1.24 | relative viability ([4]; first compound 0.4 µM): 0.914 | relative viability ([4]; first compound 1.265 µM): 0.735 | relative viability ([4]; first compound 4 µM): 0.79 | relative viability ([5]; first compound 0.04 µM): 0.382 | relative viability ([5]; first compound 0.4 µM): 0.324 | relative viability ([5]; first compound 1.265 µM): 0.357 | relative viability ([5]; first compound 4 µM): 0.393

NCI-H1915
relative viability ([1]; first compound 0.04 µM): 0.262 | relative viability ([1]; first compound 1.265 µM): 0.263 | relative viability ([1]; first compound 4 µM): 0.201 | relative viability ([2]; first compound 0.04 µM): 0.487 | relative viability ([2]; first compound 1.265 µM): 0.38 | relative viability ([2]; first compound 4 µM): 0.283 | relative viability ([3]; first compound 0.04 µM): 0.54 | relative viability ([3]; first compound 1.265 µM): 0.519 | relative viability ([3]; first compound 4 µM): 0.413 | relative viability ([4]; first compound 0.04 µM): 1.13 | relative viability ([4]; first compound 1.265 µM): 1.18 | relative viability ([4]; first compound 4 µM): 0.956 | relative viability ([5]; first compound 0.04 µM): 0.32 | relative viability ([5]; first compound 1.265 µM): 0.332 | relative viability ([5]; first compound 4 µM): 0.192

NCI-H1944
relative viability ([1]; first compound 0.04 µM): 0.404 | relative viability ([1]; first compound 0.4 µM): 0.33 | relative viability ([1]; first compound 1.265 µM): 0.495 | relative viability ([1]; first compound 4 µM): 0.587 | relative viability ([2]; first compound 0.04 µM): 0.259 | relative viability ([2]; first compound 0.4 µM): 0.266 | relative viability ([2]; first compound 1.265 µM): 0.237 | relative viability ([2]; first compound 4 µM): 0.308 | relative viability ([3]; first compound 0.04 µM): 0.595 | relative viability ([3]; first compound 0.4 µM): 0.459 | relative viability ([3]; first compound 1.265 µM): 0.647 | relative viability ([3]; first compound 4 µM): 0.531 | relative viability ([4]; first compound 0.04 µM): 1.17 | relative viability ([4]; first compound 0.4 µM): 1.15 | relative viability ([4]; first compound 1.265 µM): 0.968 | relative viability ([4]; first compound 4 µM): 1.25 | relative viability ([5]; first compound 0.04 µM): 0.229 | relative viability ([5]; first compound 0.4 µM): 0.235 | relative viability ([5]; first compound 1.265 µM): 0.227 | relative viability ([5]; first compound 4 µM): 0.224

NCI-H1975
relative viability ([1]; first compound 0.04 µM): 0.818 | relative viability ([1]; first compound 1.265 µM): 0.658 | relative viability ([1]; first compound 4 µM): 0.832 | relative viability ([2]; first compound 0.04 µM): 0.942 | relative viability ([2]; first compound 1.265 µM): 0.514 | relative viability ([2]; first compound 4 µM): 0.308 | relative viability ([3]; first compound 0.04 µM): 0.766 | relative viability ([3]; first compound 1.265 µM): 0.687 | relative viability ([3]; first compound 4 µM): 0.69 | relative viability ([4]; first compound 0.04 µM): 1.07 | relative viability ([4]; first compound 0.4 µM): 0.842 | relative viability ([4]; first compound 1.265 µM): 0.878 | relative viability ([4]; first compound 4 µM): 0.686 | relative viability ([5]; first compound 0.04 µM): 0.401 | relative viability ([5]; first compound 1.265 µM): 0.324 | relative viability ([5]; first compound 4 µM): 0.432

Reference: the supplement of paper PMC10307832
